# Literature values in patent US20250144015A1, “Pharmaceutical Compositions” (Extrovis AG, priority 2023, published 2025).
# Tested on: opioid craving
# Conditions: single high dose of 16 mg or 32 mg; opioid-dependent patients
smiles,measurement,value
"CO[C@@]12CC[C@@]3(C[C@@H]1[C@](C)(O)C(C)(C)C)C1Cc4ccc(O)c5c4[C@@]3(CCN1CC1CC1)[C@H]2O5 [buprenorphine, [5α,7α(S)]-17-(Cyclopropylmethyl)-α-(1,1-dimethylethyl)-4,5-epoxy-18,19-dihydo-3-hydroxy-6-methoxy-α-methyl-6,14-ethenomorphinan-7-methanol]",Effect on opioid craving,reduce opioid craving
